Consider two compounds from patent publication US5543396A, “Proline phosphonate derivatives” (priority 1994, dated 1996).

A short description of series [1]: Hydrolysis in human plasma. The class given is in vitro ADME. The source says: Furthermore, they show excellent stability in human plasma. For example Suc-Val-Pro-Phe^P (OPh)2 has a hydrolysis half-time in human plasma of about 20 hrs. […] Thus they can be used under a variety of conditions. Phosphonates have the additional advantage of being very stable in plasma and will have a high effectiveness in […] vivo due to their long lifetimes.

A further series deals with T1, Human Placenta DPP-IV (Homo sapiens, UniProt P27487).
T1 construct: from tissue; host or cells: human placenta
In words: Inhibition of DPP-IV by peptidyl phosphonates, incubation method. As to conditions: for inhibition of DPP-IV, in words: inhibitor 0.12 mM. The class given is biochemical. The protocol:
Standard Assay of DPP-IV. DPP-IV was assayed in 450 μL of 50 mM Tris, pH 7.8, 0.2 mM Ala-Pro-AFC (freshly diluted from a 20 mM stock in DMF), and 5 μL of enzyme solution at 30° C. or in 2 mL of buffer, 0.2 mM Ala-Pro-AFC (diluted from 8 mM stock in Me2 SO) at 23° C. Fluorescence was measured at 400 nm excitation and 505 nm emission. One unit of DPP-IV is defined as the amount of enzyme that will hydrolyze 1.0 μmole of Ala-Pro-AFC per min at 25° C. and pH 7.8.
Enzyme Irreversible Inactivation--Incubation Method. An aliquot of inhibitor (25 or 50 μL) in Me2 SO was added to 0.28-0.55 mL of a buffered enzyme solution (0.83 munits for DPP-IV; 2.1 units for acetylcholinesterase; 0.07-4.5 μM for other enzymes) to initiate the inactivation reaction. Aliquots (20-250 μL) were withdrawn at various intervals and the residual enzymatic activity was measured at 23° C. as described below. The buffers were: 0.05M Tris, pH 7.8 for DPP-IV; 0.1M Hepes, 0.01M CaCl2, pH 7.5 for bovine trypsin; 0.1M Hepes, 0.5M NaCl, pH 7.5 for bovine chymotrypsin, PPE, and HLE; 0.1M phosphate, pH 7.5 for acetylcholinesterase; 50 mM Tris-HCl, 2 mM EDTA, 5 mM cysteine, (freshly prepared) pH 7.5 buffer for papain and 100 mM KH2 PO4, 1.33 mM EDTA, 2.7 mM cysteine (freshly prepared), pH 6.0 buffer for cathepsin B. […] The inhibitor concentrations are shown in the appropriate table. Stock solutions of substrates were prepared in Me2 SO and stored at -20° C. DPP-IV was assayed with TFA.Ala-Pro-AFC. Papain and cathepsin B were assayed with Bz-Arg-AMC and Z-Arg-Arg-AMC, respectively. The release of AMC were followed fluorometrically (excitation at 380 nm and emmision at 460 nm for AMC). Acetylcholinesterase was assayed with acetylthiocholine iodide in the presence of DTNB at 412 nm. Trypsin was assayed with Z-Phe-Gly-Arg-.rho.NA.HCl (0.09 mM), chymotrypsin was assayed with Suc-Phe-Thr-Phe-.rho.NA (0.48 mM), PPE and HLE were assayed with Suc-Ala-Ala-Ala-.rho.NA (0.44 mM) and MeO-Suc-Ala-Ala-Pro-Val-.rho.NA (0.24 mM), respectively. Peptide .rho.-nitroanilide hydrolysis was measured at 410 nm (ε410 =8,800 M ^1 cm^-1). Pseudo first-order inactivation rate constants (kobs) were obtained from plots of In vt /vo vs time, and the correlation coefficients were greater than 0.98.

The nature of series [2]: Half-lives for spontaneous hydrolysis of inhibitors in buffer. The class given is physicochemical. As to conditions: 0.05 M Tris, pH 7.8 buffer, 8% Me2SO, 23° C. The source says: Determination of Half-Lives for Spontaneous Hydrolysis of Inhibitors in Buffer. […] The spontaneous hydrolysis was monitored by following the increase in absorbance at 270 nm for phosphonates with phenoxy groups, at 280 nm for compounds with 4-.chlorophenoxy groups or at 277 nm for the 4-fluorophenoxy derivative. Half-lives were obtained from first-order plots of ln (Af -At) vs time, where At is the absorbance of the mixture at time t, and Af is the final absorbance of phosphonate monophenyl ester and phenol (or corresponding compounds). This was obtained from the absorbance of the solution which had remained constant for a few hours. All the plots gave correlation coefficients of 0.95 or greater.

The next series addresses DPP-IV (Homo sapiens, UniProt P27487). Kind of series: Stability of inhibited DPP-IV.
For the next series, the target named is Chymotrypsin (Bos taurus, UniProt P00766). In words: Inhibition of chymotrypsin, incubation method. The class given is biochemical, bovine. The protocol:
Inactivation rates of serine proteases by aryl diesters of peptidyl derivatives of α-aminoalkylphosphonates were measured by the incubation method. An aliquot of inhibitor (25 or 50 μl) in Me2 SO was added to a buffered enzyme solution (0.01-2.3 μM) to initiate the inactivation. Aliquots (50 μl) were withdrawn at various intervals and the residual enzymatic activity was measured. Me2 SO concentration in the reaction mixture was 8-12% (v/v). A 0.1M HEPES, 0.01M CaCl2, pH 7.5 buffer was utilized for trypsin and trypsin-like enzymes. A 0.1M HEPES, 0.5M NaCl, pH 7.5, was utilized for the other serine proteases. Peptide thioesters or peptide nitroanilides with the appropriate sequences were used as substrates for various serine proteases. All peptide thioesters hydrolysis rates were measured with the assay mixture containing 4,4'-dithiodipyridine (ε324 =19800M^-1 cm^-1). Peptide 4-nitroanilide hydrolysis was measured at 410 nm (ε410 =8800 M ^-1 cm^-1). First order inactivation rate constants (kobs) were obtained from plots of ln vt /vo vs time, and the correlation coefficients were greater then 0.98.
Enzyme Irreversible Inactivation--Incubation Method. An aliquot of inhibitor (25 or 50 μL) in Me2 SO was added to 0.28-0.55 mL of a buffered enzyme solution (0.83 munits for DPP-IV; 2.1 units for acetylcholinesterase; 0.07-4.5 μM for other enzymes) to initiate the inactivation reaction. Aliquots (20-250 μL) were withdrawn at various intervals and the residual enzymatic activity was measured at 23° C. as described below. The buffers were: 0.05M Tris, pH 7.8 for DPP-IV; 0.1M Hepes, 0.01M CaCl2, pH 7.5 for bovine trypsin; 0.1M Hepes, 0.5M NaCl, pH 7.5 for bovine chymotrypsin, PPE, and HLE; 0.1M phosphate, pH 7.5 for acetylcholinesterase; 50 mM Tris-HCl, 2 mM EDTA, 5 mM cysteine, (freshly prepared) pH 7.5 buffer for papain and 100 mM KH2 PO4, 1.33 mM EDTA, 2.7 mM cysteine (freshly prepared), pH 6.0 buffer for cathepsin B. The Me2 SO concentration in the reaction mixtures was 8-9% (v/v). The inhibitor concentrations are shown in the appropriate table. Stock solutions of substrates were prepared in Me2 SO and stored at -20° C. DPP-IV was assayed with TFA.Ala-Pro-AFC. Papain and cathepsin B were assayed with Bz-Arg-AMC and Z-Arg-Arg-AMC, respectively. The release of AMC were followed fluorometrically (excitation at 380 nm and emmision at 460 nm for AMC). Acetylcholinesterase was assayed with acetylthiocholine iodide in the presence of DTNB at 412 nm. Trypsin was assayed with Z-Phe-Gly-Arg-.rho.NA.HCl (0.09 mM), chymotrypsin was assayed with Suc-Phe-Thr-Phe-.rho.NA (0.48 mM), PPE and HLE were assayed with Suc-Ala-Ala-Ala-.rho.NA (0.44 mM) and MeO-Suc-Ala-Ala-Pro-Val-.rho.NA (0.24 mM), respectively. Peptide .rho.-nitroanilide hydrolysis was measured at 410 nm (ε410 =8,800 M ^1 cm^-1). […]

T1 sequence (P27487 whole entry): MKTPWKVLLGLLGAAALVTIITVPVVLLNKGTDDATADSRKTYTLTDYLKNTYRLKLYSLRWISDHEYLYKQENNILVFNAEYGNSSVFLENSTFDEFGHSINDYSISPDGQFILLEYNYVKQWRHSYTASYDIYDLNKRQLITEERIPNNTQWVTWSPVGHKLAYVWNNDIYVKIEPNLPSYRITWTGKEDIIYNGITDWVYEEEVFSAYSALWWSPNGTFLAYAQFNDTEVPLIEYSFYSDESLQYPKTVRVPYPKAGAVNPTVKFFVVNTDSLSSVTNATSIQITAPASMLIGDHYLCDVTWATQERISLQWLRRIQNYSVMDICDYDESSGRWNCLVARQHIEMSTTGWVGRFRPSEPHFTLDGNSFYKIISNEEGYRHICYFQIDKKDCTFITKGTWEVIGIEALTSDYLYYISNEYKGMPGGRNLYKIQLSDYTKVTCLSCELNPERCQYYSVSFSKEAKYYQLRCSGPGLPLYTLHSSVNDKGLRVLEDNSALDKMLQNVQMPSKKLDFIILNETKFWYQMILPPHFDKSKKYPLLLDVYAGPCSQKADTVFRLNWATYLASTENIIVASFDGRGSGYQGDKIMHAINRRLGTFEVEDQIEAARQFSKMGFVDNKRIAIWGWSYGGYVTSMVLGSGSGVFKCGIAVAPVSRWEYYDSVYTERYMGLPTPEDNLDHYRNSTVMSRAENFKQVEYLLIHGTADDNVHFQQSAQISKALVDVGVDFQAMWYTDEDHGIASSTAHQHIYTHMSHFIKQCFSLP
DPP-IV, sequence (P27487 whole entry): as above

On to Suc-Val-Pro-Phe^P (OPh)2, for which the “hydrolysis half-time in human plasma” value in series [1] is given as “about 20 hrs”.
Regarding `C[C@H](N)C(=O)N1CCCCC1P(=O)(Oc1ccc(Cl)cc1)Oc1ccc(Cl)cc1.Cl` (some centres unmarked) [Compound 13, Di(4-chlorophenyl) Alanylpiperidine-2-phosphonate Hydrochloride], on Human Placenta DPP-IV ([I] 0.042 mM, 0.05 M Tris pH 7.8, 8% Me2SO, 23° C., substrate TFA.Ala-Pro-AFC 0.2 mM), the “kobs /[I] for DPP-IV” value came out at 156 M⁻¹ s⁻¹. Further, the “% Inhibition 2 min” value at Human Placenta DPP-IV ([I] 0.12 mM, 2 min incubation, 0.05 M Tris pH 7.8, 5% Me2SO, 23° C., substrate TFA.Ala-Pro-AFC 0.190 mM) is listed as 88%. In addition, at Human Placenta DPP-IV ([I] 0.12 mM, 30 min incubation, 0.05 M Tris pH 7.8, 5% Me2SO, 23° C., substrate TFA.Ala-Pro-AFC 0.190 mM), the “% Inhibition 30 min” value stood at 100%. In addition, the figures for the “inhibition of DPP-IV, in words” value against Human Placenta DPP-IV (2 min incubation) and against Human Placenta DPP-IV (30 min incubation) were “effectively inhibited” and “showed some inhibitory potency”, respectively. In series [2], the “t1/2, half-life for hydrolysis” value worked out at 67 h. Also, the “recovery of enzyme activity of inhibited DPP-IV” value at DPP-IV (after 24 h, excess inhibitor removed by centrifugation) is “did not regain enzyme activity”. Besides, the “DPP-IV enzyme activity found after incubation with inhibitor” value at DPP-IV (inhibitor 0.042-0.42 mM, pH 7.8 buffer, incubation for 1 h) is on record as “no enzyme activity”. For the same compound, the “inhibition of chymotrypsin, in words” value on Chymotrypsin is listed as “very slowly”. Besides, the “kobs /[I] Chymotrypsin” value at Chymotrypsin ([I] 0.42 mM, 0.1 M Hepes, 0.5 M NaCl, pH 7.5, 8-9% Me2SO, 23° C., Suc-Phe-Thr-Phe-pNA 0.48 mM) worked out at 18 M⁻¹ s⁻¹.
